Experimental data taken from ChEMBL document CHEMBL1129892, “Tetracyclic analogues of [+]-S 14297: Synthesis and determination of affinity and selectivity at cloned human dopamine D3 vs D2 receptors” (Bioorg Med Chem Lett, 1997).

Assays:
D(2) dopamine receptor = D(2) dopamine receptor (Homo sapiens, UniProt P14416); format: cell membranes, CHO
D(3) dopamine receptor = D(3) dopamine receptor (Homo sapiens, UniProt P35462); test: biochemical
Sequence of D(3) dopamine receptor (P35462 whole entry): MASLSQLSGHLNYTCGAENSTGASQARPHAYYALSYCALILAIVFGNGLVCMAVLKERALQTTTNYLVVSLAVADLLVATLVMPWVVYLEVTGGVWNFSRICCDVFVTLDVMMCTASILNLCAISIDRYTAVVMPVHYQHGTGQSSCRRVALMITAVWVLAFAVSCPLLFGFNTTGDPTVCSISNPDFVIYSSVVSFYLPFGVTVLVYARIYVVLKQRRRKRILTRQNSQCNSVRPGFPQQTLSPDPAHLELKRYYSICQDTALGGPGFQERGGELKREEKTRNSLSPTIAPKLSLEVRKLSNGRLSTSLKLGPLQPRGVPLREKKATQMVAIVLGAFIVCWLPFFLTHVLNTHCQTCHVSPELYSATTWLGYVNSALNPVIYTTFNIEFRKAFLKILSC
Description: Inhibition of [125 I]iodosulpiride binding to human Dopamine receptor D3 expressed in CHO cell membranes

Sequence of D(2) dopamine receptor (P14416 whole entry): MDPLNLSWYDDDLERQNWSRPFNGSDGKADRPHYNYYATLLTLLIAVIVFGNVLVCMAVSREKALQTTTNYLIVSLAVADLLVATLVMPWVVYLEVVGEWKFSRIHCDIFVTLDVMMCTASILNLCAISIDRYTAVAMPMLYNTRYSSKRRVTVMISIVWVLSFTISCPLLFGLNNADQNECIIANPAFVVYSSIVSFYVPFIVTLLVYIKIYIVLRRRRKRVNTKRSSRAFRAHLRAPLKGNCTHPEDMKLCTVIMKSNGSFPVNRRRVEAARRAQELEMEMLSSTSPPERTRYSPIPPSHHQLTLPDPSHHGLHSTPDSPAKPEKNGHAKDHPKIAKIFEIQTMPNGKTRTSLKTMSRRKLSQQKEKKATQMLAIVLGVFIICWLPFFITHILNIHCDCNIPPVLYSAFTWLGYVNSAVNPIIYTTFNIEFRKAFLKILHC

Row | Ki (D(2) dopamine receptor) | Structure (SMILES) | Ki (D(3) dopamine receptor)
1 | 5010 nM | CC(C)CN1CCO[C@@H]2c3cc4c(cc3CC[C@H]21)CCO4 | 126 nM
2 | 398 nM | CCCN1CCO[C@@H]2c3cc4c(cc3CC[C@H]21)CCO4 | 
3 | 2510 nM | c1c2c(cc3c1CC[C@@H]1[C@@H]3OCCN1CC1CC1)OCC2 | 63.1 nM
4 | > 10000 nM | CCCN1CCO[C@H]2c3cc4c(cc3CC[C@H]21)CCO4 | 
5 | > 10000 nM | c1ccc(CN2CCO[C@@H]3c4cc5c(cc4CC[C@H]32)CCO5)cc1 | > 10000 nM
6 | > 10000 nM | c1ccc(CCN2CCO[C@@H]3c4cc5c(cc4CC[C@H]32)CCO5)cc1 | > 10000 nM

More lines, now with the values behind:

Row | Structure (SMILES) | Ki (D(2) dopamine receptor) | Ki (D(3) dopamine receptor)
7 | CCCN(CCC)C1CCc2cc3c(cc2C1)OCC3 (stereo not given) | 251 nM | 12.6 nM
8 | CCCN1CCO[C@@H]2c3cc4c(cc3OC[C@H]21)CCO4 | 12600 nM | 
9 | CCCN1CCC[C@@H]2c3cc4c(cc3CC[C@H]21)CCO4 | 501 nM | 25.1 nM
10 | c1c2c(cc3c1CC[C@H]1NCCO[C@H]31)OCC2 | 1000 nM | 200 nM
11 | CN1CCO[C@@H]2c3cc4c(cc3CC[C@H]21)CCO4 | 398 nM | 79.4 nM
12 | CCCN1CCO[C@H]2c3cc4c(cc3OC[C@H]21)CCO4 | > 100000 nM | 
